Data set [1] can be described thus: Clinically relevant exposures (clinical plasma exposure, protein adjusted). The class given is in vivo. As for the experimental part: (§1) Clinically relevant doses of Compound A were calculated.
A set of data was selected from the synergy screening to represent clinically relevant concentration ranges of venetoclax and Compound A. […] Cmin and Ctrough of Compound A were similarly adjusted.

A short description of data set [2]: Protein shift: free fraction in human plasma / cell culture media. Format: in vitro ADME. As for the experimental part:
as §1
A set of data was selected from the synergy screening to represent clinically relevant concentration ranges of venetoclax and Compound A. The average concentration of venetoclax (Cav) was estimated at the 400 mg dose adjusted for protein binding using empirically determined free fraction in human plasma/cell culture media. Cmin and Ctrough of Compound A were similarly adjusted.

In another data set the test system is DLBCL cell lines. Nature of the data set: Single agent cell growth assessment (Cell Titer Glo). Format: cell-based. As to conditions: Homo sapiens, 96 h, CTG, three or four days. The protocol:
Compound A was serially diluted by three-fold in 100% DMSO in a 96 well plate format in duplicate dose curves to achieve a dose range of 10 mM to […] as a 1000× stock. Serially-diluted 1000× Compound A was then further diluted 1:100 in RPMI-1640 without additives to generate a 10× stock and finally diluted 1:10 into assay plate wells containing 100 μL of cells. The final concentration of DMSO was 0.1% in 111 μL of final volume in the assay wells and the dose range of Compound A was 10 μM to 0.5 nM. […] Cell viability was assessed using Cell Titer Glo (CTG, Promega, Madison, Wis.) following the manufacturer's protocol. Luminescence was measured on an EnSpire Multimode Plate Reader (Perkin Elmer, Waltham, Mass., Model 2300-001M).
A replicate assay plate was created at study initiation, processed immediately for cell viability by CTG, and these values represented 0% growth (day 0). […] Curve fittings were applied with a four parameter variable slope model and the following three calculations were determined using the curve fits. […]
(§2) The activity of Compound A to induce apoptosis or inhibit cell growth was assessed across a panel of DLBCL cell lines. DLBCL cell lines were subjected to a ten point dose response of Compound A (range 0.5 nM-10,000 nM, 3× dilution series) and assessed for cell growth inhibition by CTG or apoptosis by AnnexinV staining after three or four days.

Another data set deals with DLBCL and FL cell lines. The data set can be described thus: Annexin V apoptosis assay (flow cytometry). Format: cell-based, human. As for the experimental part:
Apoptosis induced by Compound A was measured by Annexin V staining as detected by flow cytometry. Compound A was diluted two-fold in duplicate to a starting concentration of 5 mM in 100% DMSO, and then serially diluted by three-fold in 100% DMSO in a 96 well plate format to achieve a 500× dose range of 5 mM to 0.76 μM. Serially-diluted Compound A was then further diluted 1:5 in sterile water to generate a 100× stock and finally diluted 1:100 into assay plate wells containing 200 μL of cells. The final concentration of DMSO was 0.2% in 200 μL in the assay wells and the dose range of Compound A was 10 μM to 1.5 nM. Cells were plated at 20,000-80,000 cells per well and assay plates were incubated after compound addition at 37° C. with 5% CO2 for 3 days in growth medium appropriate for each cell line. Control wells on all assay plates included 0.2% DMSO (0% apoptosis on day 3), 1 μM Velcade®, and 1 μM staurosporine (apoptosis control on day 3). Velcade® and staurosporine were used as benchmarks to ensure apoptosis could be achieved in each cell line.
After 72 to 96 hours, the cell compound mixture was transferred to a 96-well deep well conical bottom plate, centrifuged at 300×g, and cell pellets were re-suspended in DPBS. Plates were centrifuged at 300×g, supernatant was decanted, and cell pellets were re-suspended in 500 μl of pre-diluted LIVE/DEAD® Fixable Aqua Dead Cell Stain for 30 minutes at room temperature protected from light. Assay plates were centrifuged at 300×g, supernatant was decanted, and cell pellets were washed twice in 500 μL of DPBS containing 4% FBS. The washed pellets were re-suspended in 100 μL DPBS containing 4% FBS, 5 μL of Annexin V APC was added to each well, and assay plates were incubated for 30 minutes at room temperature, protected from light. Assay plates were washed twice with 500 μL of DPBS containing 4% FBS per well, and cell pellets were finally re-suspended in 250 μL of DPBS containing 4% FBS.
Flow cytometric sampling of 20,000 total events within a forward scatter and side-scatter gate (P1) per well were collected on a BD FACS Canto II instrument with DIVA software (San Jose, Calif.) using a high throughput screen auto-sampler for analysis of apoptosis. Within the P1 gate Annexin V^+/LIVE/DEAD^− and Annexin V^+/LIVE/DEAD^+ cells were digitally monitored. Single- or double-labeled cells were gated, percentages of Annexin V-positive cells in each population were recorded and combined, and data were extracted to a flow cytometry standard file (fcs). Mean percentages of Annexin V-positive cells were determined for the positive control (Velcade® and staurosporine at 1 μM) and negative wells (0.2% DMSO) to ensure the assay performed as expected for each cell line on each experimental day.
EC50 values for each compound were calculated based on log concentration of drug and percent Annexin V-positive cells using a four-parameter logistical fit equation in Prism 6.01 of the GraphPad software package. The percentage of apoptosis at EC50 was interpolated from the curve fit for each cell line. […] For an experiment to be valid, the % baseline apoptosis for a given cell line was required to be <35%.
as §2
Background: In flow cytometry, cells or beads pass a laser one at a time.

In a further data set the test system is Myc protein. Nature of the data set: Reduction of Myc protein expression by Compound A. Format: cell-based, human. As to conditions: subset of cell lines of FIG. 1, dose-dependent.
The conditions of data set [3]: ABT-199, 400 mg dose, Phase I NHL study; cited from earlier work.

SMILES strings stand for the structures. Values joined by “and” are separate entries in the source; they are usually repeats but may differ in a detail not shown here. Equal values may be shown once. Read-outs that look alike come from different tables or passages of the source.

Turning to `Cc1noc(C)c1-c1cc(C(O)(c2ccccn2)c2ccccn2)c2nc(C3CC3)[nH]c2c1` [Compound A], the “CCM adjusted Cave” value in data set [1] (human, in vivo) was determined as 40 nM. The “CCM adjusted Cmin” value in data set [1] (human, in vivo) turned out to be 10 nM. For the same compound, the Cmax in data set [1] (human, in vivo, 4 mg, CCM protein adjusted CCM Cmax) was 111 nM; in data set [1] (human, in vivo, 4 mg, exposures Cmax), 279 ng/mL and 638 nM; in data set [1] (human, in vivo, CCM adjusted Cmax), 90 nM; in data set [1] (human, in vivo, protein adjusted Cmax concentration), roughly 113 nM. Further, the CCM/buffer entry in data set [2] is “CCM/buffer 67%”. The HP/buffer result in data set [2] (human) is listed as “HP/buffer 11.7”. Moreover, the half-maximal effective concentration (EC50) in the data set with DLBCL cell lines (DLBCL cell lines of FIG. 1, read-out: growth inhibition EC50 range across cell lines) is 12 to 72 nM; in the data set with DLBCL cell lines (mean over subset of cell lines of FIG. 1, read-out: growth inhibition mean EC50) it was 40 nM; in the data set with DLBCL and FL cell lines (Homo sapiens, one responding cell line with EC50 above 113 nM) it was 2500 nM; with DLBCL and FL cell lines (individual responding cell lines, three or four days), < 113 nM and 274 nM and 881 nM; in the data set with Myc protein (Homo sapiens) it was no more than 155 nM; in the data set on Myc protein it was 284 nM. The “% apoptosis by 1 μM” value with DLBCL and FL cell lines (cell lines that did not undergo apoptosis (10 of 21; 8 of the FIG. 1 subset)) is on record as less than 30%. Further, the “% Annexin V positive after treatment with 1 μM” value in the data set on DLBCL and FL cell lines (eight cell lines with EC50 <113 nM) was greater than 30%. Further, the “lines refractory to Bcl-2 inhibition that undergo apoptosis” value in the data set on DLBCL and FL cell lines (of the 8 lines refractory to venetoclax (FIG. 4)) turned out to be 6. Moreover, in the data set with DLBCL and FL cell lines (of twenty-one DLBCL and FL cell lines, single agent), the “number of cell lines that underwent apoptosis” value came out at 11. Besides, the “subset of DLBCL cell lines in which apoptosis was induced” value in the data set with DLBCL and FL cell lines (share of DLBCL cell lines) is given as 58%.
Regarding `CC1(C)CCC(CN2CCN(c3ccc(C(=O)NS(=O)(=O)c4ccc(NCC5CCOCC5)c([N+](=O)[O-])c4)c(Oc4cnc5[nH]ccc5c4)c3)CC2)=C(c2ccc(Cl)cc2)C1` [venetoclax, reference compound], the Cmax is 536 nM in data set [1] (ABT-199, 400 mg dose, cell culture media adjusted, read-out: CCM protein adjusted Cmax); 536 nM in data set [1] (human, plasma, 400 mg, ABT-199, 400 mg dose, cell culture media adjusted, read-out: CCM protein adjusted Cmax); 2300 nM in data set [1] (human, plasma, 400 mg, ABT-199, 400 mg dose, read-out: exposures Cmax). In data set [2] (free fraction, cell culture media), the CCM/buffer result is given as “CCM/buffer 0.44%”. Further, in data set [2] (free fraction, human plasma), the HP/buffer result is reported as “HP/buffer 0.10%”. The “exposures Cmax” value in data set [3] was 2000 ng/mL. Besides, the “exposures Cmin” value in data set [3] was 200 ng/mL.

What is called Cmax is the maximum level reached in the sampled fluid or tissue. What is called EC50 is the midpoint of the concentration-response curve.
